Data taken from ChEMBL document CHEMBL1139097, “Synthesis and QSAR studies on hypotensive 1-[3-(4-substituted phenylthio) propyl]-4-(substituted phenyl) piperazines” (Bioorg Med Chem Lett, 2007).

Tests used:
Felis catus = assay: Hypotensive activity in anaesthetized cat assessed as blood pressure fall at 2 umol/kg, iv; format: functional
[1] = molecular target: 5-hydroxytryptamine receptor 2A (Rattus norvegicus) (UniProt P14842); assay: Displacement of [3H]ketanserin from rat cloned 5HT2A receptor expressed in NIH-3T3-GF6 cells at 10^-6M relative to ketanserin; format: cell-based
Chain of 5-hydroxytryptamine receptor 2A (Rattus norvegicus) (P14842 whole entry): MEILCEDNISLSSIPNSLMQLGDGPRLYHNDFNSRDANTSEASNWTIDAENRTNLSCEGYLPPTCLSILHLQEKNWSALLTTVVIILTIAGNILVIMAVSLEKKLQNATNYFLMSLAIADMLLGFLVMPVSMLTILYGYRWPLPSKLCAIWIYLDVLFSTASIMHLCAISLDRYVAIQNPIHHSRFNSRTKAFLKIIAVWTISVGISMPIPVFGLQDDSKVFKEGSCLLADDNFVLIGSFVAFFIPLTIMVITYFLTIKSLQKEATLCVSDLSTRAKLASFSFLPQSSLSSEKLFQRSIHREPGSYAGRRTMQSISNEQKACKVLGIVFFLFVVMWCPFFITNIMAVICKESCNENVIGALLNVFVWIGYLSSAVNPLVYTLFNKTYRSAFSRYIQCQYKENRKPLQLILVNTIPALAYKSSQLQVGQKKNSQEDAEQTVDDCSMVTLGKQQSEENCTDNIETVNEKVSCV

[2] = molecular target: 5-hydroxytryptamine receptor 2A (Rattus norvegicus, UniProt P14842); assay: Displacement of [3H]ketanserin from rat cloned 5HT2A receptor expressed in NIH-3T3-GF6 cells; format: cell-based
Chain of 5-hydroxytryptamine receptor 2A (P14842 whole entry): as above

SMILES: Cc1cccc(N2CCN(CCCSc3ccc(F)cc3)CC2)c1
- Activity (Felis catus): 38.3%

SMILES: Cc1ccc(SCCCN2CCN(c3cccc(C)c3)CC2)cc1
- Activity (Felis catus): 55.74%

SMILES: Fc1ccc(SCCCN2CCN(c3ccccc3)CC2)cc1
- Activity [1]: 37%
- Activity (Felis catus): 14.28%

SMILES: COc1ccccc1N1CCN(CCCSc2ccccc2)CC1
- Activity (Felis catus): 26.23%

SMILES: Cc1cccc(N2CCN(CCCSc3ccc([N+](=O)[O-])cc3)CC2)c1
- Activity [1]: 80.5%
- Activity (Felis catus): 84.41%
- Ki [2]: 0.0211 µM

SMILES: Clc1ccc(N2CCN(CCCSc3ccccc3)CC2)cc1Cl
- Activity (Felis catus): 45.83%

SMILES: CC(=O)Nc1ccc(SCCCN2CCN(c3ccc(F)cc3)CC2)cc1
- Activity [1]: 85.4%
- Activity (Felis catus): 21.21%

SMILES: COc1ccc(N2CCN(CCCSc3ccc(Br)cc3)CC2)cc1
- Activity [1]: 37.1%
- Activity (Felis catus): 23.06%

SMILES: COc1ccc(SCCCN2CCN(c3ccc(Cl)c(Cl)c3)CC2)cc1
- Activity (Felis catus): 21.05%

SMILES: Cc1cccc(N2CCN(CCCSc3ccc(Cl)cc3)CC2)c1
- Activity (Felis catus): 43.8%

SMILES: Cc1ccc(SCCCN2CCN(c3ccc(F)cc3)CC2)cc1
- Activity (Felis catus): 21.74%

SMILES: CCNc1ccc(SCCCN2CCN(c3cccc(C)c3)CC2)cc1
- Activity (Felis catus): 41.14%

SMILES: COc1ccc(N2CCN(CCCSc3ccc(F)cc3)CC2)cc1
- Activity [1]: 25.7%
- Activity (Felis catus): 12.49%

SMILES: CC(=O)Nc1ccc(SCCCN2CCN(c3cccc(C)c3)CC2)cc1
- Activity [1]: 94.7%
- Activity (Felis catus): 55%
- Ki [2]: 0.00609 µM

SMILES: Fc1ccc(N2CCN(CCCSc3ccc(Cl)cc3)CC2)cc1
- Activity (Felis catus): 42.31%

SMILES: CC(=O)Nc1ccc(SCCCN2CCN(c3ccccc3C)CC2)cc1
- Activity [1]: 72.7%
- Activity (Felis catus): 51.61%
- Ki [2]: 0.0211 µM

SMILES: Clc1ccc(SCCCN2CCN(c3ccc(Cl)c(Cl)c3)CC2)cc1
- Activity (Felis catus): 26.58%

SMILES: CC(=O)Nc1ccc(SCCCN2CCN(c3ccc(Cl)c(Cl)c3)CC2)cc1
- Activity (Felis catus): 20%

SMILES: Cc1cccc(N2CCN(CCCSc3ccc(N)cc3)CC2)c1
- Activity (Felis catus): 24.28%

SMILES: Cc1ccc(SCCCN2CCN(c3ccccc3C)CC2)cc1
- Activity (Felis catus): 61.02%

SMILES: Cc1ccccc1N1CCN(CCCSc2ccc([N+](=O)[O-])cc2)CC1
- Activity (Felis catus): 42%

SMILES: Fc1ccc(N2CCN(CCCSc3ccccc3)CC2)cc1
- Activity (Felis catus): 20.69%

SMILES: Cc1cccc(N2CCN(CCCSc3ccccc3)CC2)c1
- Activity [1]: 75.6%
- Activity (Felis catus): 65.15%
- Ki [2]: 0.0136 µM

SMILES: O=[N+]([O-])c1ccc(SCCCN2CCN(c3ccc(F)cc3)CC2)cc1
- Activity (Felis catus): 25.87%

SMILES: COc1ccccc1N1CCN(CCCSc2ccc(Br)cc2)CC1
- Activity (Felis catus): 21.59%

SMILES: Fc1ccc(SCCCN2CCN(c3ccc(Cl)c(Cl)c3)CC2)cc1
- Activity (Felis catus): 38.3%

SMILES: Clc1cccc(N2CCN(CCCSc3ccccc3)CC2)c1
- Activity (Felis catus): 55.99%

SMILES: COc1ccc(SCCCN2CCN(c3cccc(C)c3)CC2)cc1
- Activity (Felis catus): 21.4%

SMILES: COc1ccc(N2CCN(CCCSc3ccccc3)CC2)cc1
- Activity (Felis catus): 15.38%

SMILES: c1ccc(SCCCN2CCN(c3ccccc3)CC2)cc1
- Activity [1]: 37.4%
- Activity (Felis catus): 41.07%

SMILES: COc1ccc(SCCCN2CCN(c3cccc(F)c3)CC2)cc1
- Activity (Felis catus): 17.02%

SMILES: Cc1ccccc1N1CCN(CCCSc2ccc(F)cc2)CC1
- Activity (Felis catus): 37.59%

SMILES: COc1ccc(SCCCN2CCN(c3cccc(Cl)c3)CC2)cc1
- Activity (Felis catus): 42.62%

SMILES: Fc1ccc(SCCCN2CCN(c3ccc(F)cc3)CC2)cc1
- Activity [1]: 32.9%
- Activity (Felis catus): 20.66%

SMILES: Cc1ccccc1N1CCN(CCCSc2ccc(Cl)cc2)CC1
- Activity (Felis catus): 40%

SMILES: Fc1ccc(SCCCN2CCN(c3cccc(F)c3)CC2)cc1
- Activity (Felis catus): 34%

SMILES: CCNc1ccc(SCCCN2CCN(c3ccccc3C)CC2)cc1
- Activity (Felis catus): 48.65%

SMILES: COc1ccc(SCCCN2CCN(c3ccc(F)cc3)CC2)cc1
- Activity (Felis catus): 17.46%

SMILES: COc1ccc(SCCCN2CCN(c3cccc(C(F)(F)F)c3)CC2)cc1
- Activity (Felis catus): 53.42%

SMILES: Nc1ccc(SCCCN2CCN(c3ccc(F)cc3)CC2)cc1
- Activity (Felis catus): 13.51%

SMILES: Cc1ccc(SCCCN2CCN(c3ccc(Cl)c(Cl)c3)CC2)cc1
- Activity (Felis catus): 36.36%

SMILES: Fc1ccc(N2CCN(CCCSc3ccc(Br)cc3)CC2)cc1
- Activity (Felis catus): 19.86%
